In paper PMC10741476, “The Allosteric Regulation of Β-Ureidopropionase Depends on Fine-Tuned Stability of Active-Site Loops and Subunit Interfaces” (Biomolecules, 2023):
Where two headings read alike, the source gives them in different places. Residues, ends and D or L forms follow the SMILES beside them.

B1: human β-ureidopropionase (HsβUP) (Homo sapiens) (protein)
chain: MAGAEWKSLEECLEKHLPLPDLQEVKRVLYGKELRKLDLPREAFEAASREDFELQGYAFEAAEEQLRRPRIVHVGLVQNRIPLPANAPVAEQVSALHRRIKAIVEVAAMCGVNIICFQEAWTMPFAFCTREKLPWTEFAESAEDGPTTRFCQKLAKNHDMVVVSPILERDSEHGDVLWNTAVVISNSGAVLGKTRKNHIPRVGDFNESTYYMEGNLGHPVFQTQFGRIAVNICYGRHHPLNWLMYSINGAEIIFNPSATIGALSESLWPIEARNAAIANHCFTCAINRVGTEHFPNEFTSGDGKKAHQDFGYFYGSSYVAAPDSSRTPGLSRSRDGLLVAKLDLNLCQQVNDVWNFKMTGRYEMYARELAEAVKSNYSPTIVKE

Assays:
[1] = target: T1, human β-ureidopropionase (HsβUP) (Homo sapiens, UniProt Q9UBR1); experiment: discontinuous OPA fluorescence assay of beta-alanine formation from NCβA; format: biochemical
T1 construct: gene UPB1
T1 sequence (Q9UBR1 1-384): B1 chain
Description: discontinuous OPA fluorescence assay of beta-alanine formation from NCβA on human β-ureidopropionase (HsβUP)

[2] = substrate: NC(=O)NCCC(=O)O; experiment: as above; format: biochemical, Homo sapiens; details: pH 6.5, 37 °C, 100 mM MES, 50 mM NaCl

Row | Molecule | Ki [1] | further results
1 | CC(C)C(=O)O [isobutyric acid] | 2270 µM | –
2 | NCC(=O)NCC(=O)O [glycyl-glycine] (H-Gly-Gly-OH) | – | Ki ([1]; pH 6.5, 37 °C, 100 mM MES, 50 mM NaCl, competitive mode assumed (data best fitted as non-competitive), substrate NCβA): 237 µM
3 | CC(C)(N)C(=O)O [2-aminoisobutyric acid] | 151 µM | –
4 | B1 | – | Km [2]: 101.4 µM
